The values below come from ChEMBL document CHEMBL4311992, “Discovery of 3-(((9H-purin-6-yl)amino)methyl)-4,6-dimethylpyridin-2(1H)-one derivatives as novel tubulin polymerization inhibitors for treatment of cancer” (Eur J Med Chem, 2019).

pIC50: −log10 of the molar value.

For data set [1], the system named is Hepatocyte growth factor receptor (Homo sapiens), P08581 [Y1230C]. Briefly: Inhibition of recombinant human MET A1209G/V1290L/Y1248C mutant (974 to end residues) assessed as residual activity at 10 uM using KKKGQEEEYVFIE as substrate measured after 40 mins in presence of [gamma33P]ATP by scintillation counting method.
The subject of data set [2] is HCT-116. Put plainly: Antitumor activity against human HCT116 cells xenografted in nude BALB/c mouse assessed as tumor growth inhibition at 40 mg/kg, po administered once daily for 4 weeks measured post-last dose relative to control. It is filed as functional. Particulars: HCT-116, po, 672 h, read-out: TGI.
The target of data set [3] is Serine/threonine-protein kinase Nek7 (Homo sapiens) (UniProt Q8TDX7). Briefly: Inhibition of recombinant human NEK7 (2 to end residues) assessed as residual activity at 10 uM using FLAKSFGSPNRAYKK as substrate measured after 40 mins in presence of [gamma33P]ATP by scintillation counting method.
In data set [4] the test system is Ribosomal protein S6 kinase beta-1 (Homo sapiens), P23443 [T412E]. Put plainly: Inhibition of recombinant human p70S6K T412E mutant (1 to 421 residues) assessed as residual activity at 10 uM using KKRNRTLTV as substrate measured after 40 mins in presence of [gamma33P]ATP by scintillation counting method.
Ribosomal protein S6 kinase beta-1 (Homo sapiens), P23443 [T412E], sequence (P23443 whole entry T412E, looked up, the tested form may be a part): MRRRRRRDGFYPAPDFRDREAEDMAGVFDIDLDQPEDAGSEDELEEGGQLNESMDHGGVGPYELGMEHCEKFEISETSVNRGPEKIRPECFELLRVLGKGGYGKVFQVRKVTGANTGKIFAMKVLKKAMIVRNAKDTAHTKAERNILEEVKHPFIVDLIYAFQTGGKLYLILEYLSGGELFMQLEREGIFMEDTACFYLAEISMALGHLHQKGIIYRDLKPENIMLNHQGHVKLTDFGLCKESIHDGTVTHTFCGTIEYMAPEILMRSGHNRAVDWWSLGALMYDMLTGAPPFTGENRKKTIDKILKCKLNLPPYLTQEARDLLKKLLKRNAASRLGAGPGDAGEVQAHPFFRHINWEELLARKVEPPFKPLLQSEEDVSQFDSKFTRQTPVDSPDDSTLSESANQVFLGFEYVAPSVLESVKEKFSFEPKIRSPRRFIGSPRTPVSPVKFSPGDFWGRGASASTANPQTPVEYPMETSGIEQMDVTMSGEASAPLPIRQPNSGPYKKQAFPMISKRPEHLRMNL
Data set [5] relates to HCT-116. Briefly: cells. Conditions: Homo sapiens, HCT-116, 72 h.
Description: Antiproliferative activity against human HCT116 cells after 72 hrs by MTT assay
Data set [6] concerns the target Calcium/calmodulin-dependent protein kinase type II subunit beta (Homo sapiens) (UniProt Q13554). Put plainly: Inhibition of recombinant full-length human CaMK2beta (1 to 315 residues) assessed as residual activity at 10 uM using calmodulin as substrate measured after 40 mins in presence of [gamma33P]ATP by scintillation counting method.
The target of data set [7] is cAMP-dependent protein kinase catalytic subunit alpha (Homo sapiens) (UniProt P17612). Put plainly: Inhibition of recombinant full-length human PKA assessed as residual activity at 10 uM using Kemptide as substrate measured after 40 mins in presence of [gamma33P]ATP by scintillation counting method.
Data set [8] deals with Phosphorylase b kinase gamma catalytic chain, skeletal muscle/heart isoform (Homo sapiens) (UniProt Q16816). Briefly: Inhibition of recombinant full-length human PhKgamma1 assessed as residual activity at 10 uM using KKLNRTLSFAEPG as substrate measured after 120 mins in presence of [gamma33P]ATP by scintillation counting method.
For data set [9], the target named is Insulin-like growth factor 1 receptor (Homo sapiens) (UniProt P08069). Briefly: Inhibition of recombinant human IGF1R (959 to end residues) assessed as residual activity at 10 uM using KKKSPGEYVNIEFG as substrate measured after 40 mins in presence of [gamma33P]ATP by scintillation counting method.
Data set [10] concerns the target Serine/threonine-protein kinase TAO1 (Homo sapiens) (UniProt Q7L7X3). Briefly: Inhibition of human TAO1 (1 to 327 residues) using myelin basic protein as substrate measured after 40 mins in presence of [gamma33P]ATP by scintillation counting method. Also on record: scale not given: the % may be the effect or the level left.
The target in data set [11] is Mitogen-activated protein kinase 13 (Homo sapiens) (UniProt O15264). Put plainly: Inhibition of recombinant full-length human SAPK4 assessed as residual activity at 10 uM using myelin basic protein as substrate measured after 40 mins in presence of [gamma33P]ATP by scintillation counting method.
The species named for data set [12] is Homo sapiens. Put plainly: Inhibition of recombinant human EphB2 A848S/ K918E mutant (560 to end residues) assessed as residual activity at 10 uM using KTFCGTPEYLAPEVRREPRILSEEEQEMFRDFDYIADWC as substrate measured after 40 mins in presence of [gamma33P]ATP by scintillation counting method.
For data set [13], the target named is Fibroblast growth factor receptor 1 (Homo sapiens) (UniProt P11362). Put plainly: Inhibition of recombinant human FGFR1 (456 to 765 residues) assessed as residual activity at 10 uM using KKKSPGEYVNIEFG as substrate measured after 40 mins in presence of [gamma33P]ATP by scintillation counting method.
Fibroblast growth factor receptor 1 (Homo sapiens), sequence (P11362 22-822 limits assumed): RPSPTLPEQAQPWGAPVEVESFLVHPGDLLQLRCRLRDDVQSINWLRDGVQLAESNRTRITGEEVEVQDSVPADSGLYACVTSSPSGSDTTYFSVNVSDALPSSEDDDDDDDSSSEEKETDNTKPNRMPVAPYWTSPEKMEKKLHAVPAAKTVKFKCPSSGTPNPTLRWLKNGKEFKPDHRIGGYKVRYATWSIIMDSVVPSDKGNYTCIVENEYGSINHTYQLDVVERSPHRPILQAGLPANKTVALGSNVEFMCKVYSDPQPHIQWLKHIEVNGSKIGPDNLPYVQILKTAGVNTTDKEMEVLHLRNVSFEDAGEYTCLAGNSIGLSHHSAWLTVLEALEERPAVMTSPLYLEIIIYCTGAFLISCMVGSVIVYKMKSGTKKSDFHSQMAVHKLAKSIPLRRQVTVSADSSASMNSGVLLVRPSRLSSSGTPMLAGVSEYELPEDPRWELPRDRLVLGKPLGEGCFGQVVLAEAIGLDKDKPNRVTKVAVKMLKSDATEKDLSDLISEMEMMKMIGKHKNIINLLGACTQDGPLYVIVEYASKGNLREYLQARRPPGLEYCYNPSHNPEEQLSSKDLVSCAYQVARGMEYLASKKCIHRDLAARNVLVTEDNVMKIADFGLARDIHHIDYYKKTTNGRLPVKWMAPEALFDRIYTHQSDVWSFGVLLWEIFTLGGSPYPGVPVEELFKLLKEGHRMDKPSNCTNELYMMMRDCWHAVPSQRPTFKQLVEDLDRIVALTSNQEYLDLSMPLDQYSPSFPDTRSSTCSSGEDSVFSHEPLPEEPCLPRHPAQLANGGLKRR
Data set [14] concerns the target Protein kinase C beta type (Homo sapiens) (UniProt P05771). Put plainly: Inhibition of recombinant human PKCbeta2 (2 to end residues) assessed as residual activity at 10 uM using histone H1 as substrate measured after 40 mins in presence of [gamma33P]ATP by scintillation counting method.
Data set [15] can be described thus: Renal toxicity in nude BALB/c mouse at 80 mg/kg, po administered once daily for 4 weeks measured post-last dose by hematoxylin and eosin staining-based assay. Format: organism-based. Particulars: in vivo, 672 h.
For data set [16], the target named is Dual specificity mitogen-activated protein kinase kinase 3 (Homo sapiens) (UniProt P46734). Briefly: Inhibition of human MKK3 assessed as residual activity at 10 uM by radiometric method.
Dual specificity mitogen-activated protein kinase kinase 3 (Homo sapiens), sequence (P46734 whole entry): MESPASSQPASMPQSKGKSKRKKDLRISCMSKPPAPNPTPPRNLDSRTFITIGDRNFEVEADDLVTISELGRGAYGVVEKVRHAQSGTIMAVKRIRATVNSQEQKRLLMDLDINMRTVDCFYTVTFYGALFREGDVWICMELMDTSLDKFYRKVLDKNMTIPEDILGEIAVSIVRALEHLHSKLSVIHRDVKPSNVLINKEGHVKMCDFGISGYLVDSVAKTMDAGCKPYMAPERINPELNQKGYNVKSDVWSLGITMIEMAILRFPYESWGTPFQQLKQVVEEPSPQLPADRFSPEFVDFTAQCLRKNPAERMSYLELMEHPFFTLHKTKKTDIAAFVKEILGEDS
Data set [17] concerns Mast/stem cell growth factor receptor Kit (Homo sapiens), P10721 [V654A]. Put plainly: Inhibition of recombinant human c-Kit V654A mutant (544 to end residues) assessed as residual activity at 10 uM using GGMEDIYFEFMGGKKK as substrate measured after 40 mins in presence of [gamma33P]ATP by scintillation counting method.
Data set [18] addresses 5'-AMP-activated protein kinase catalytic subunit alpha-1 (Homo sapiens) (UniProt Q13131). Put plainly: Inhibition of recombinant full-length human AMPKalpha1 assessed as residual activity at 10 uM using AMARAASAAALARRR as substrate measured after 40 mins in presence of [gamma33P]ATP by scintillation counting method.
The species named for data set [19] is Homo sapiens. Briefly: Inhibition of recombinant full-length human JNK2alpha2 S51N mutant assessed as residual activity at 10 uM using ATF2 as substrate measured after 40 mins in presence of [gamma33P]ATP by scintillation counting method.
Data set [20] addresses Serine/threonine-protein kinase haspin (Homo sapiens) (UniProt Q8TF76). Briefly: Inhibition of recombinant human haspin (471 to end residues) assessed as residual activity at 10 uM using RARTLSFAEPG as substrate measured after 40 mins in presence of [gamma33P]ATP by scintillation counting method.
For data set [21], the target named is Casein kinase I (Homo sapiens) (UniProt Q9HCP0+P78368+P48730+P49674+P48729). Put plainly: Inhibition of CK1 (unknown origin) assessed as residual activity at 10 uM. Format: protein assay.
Data set [22] deals with CDK9/cyclin T1 (Homo sapiens) (UniProt O60563+P50750). Put plainly: Inhibition of recombinant full length human CDK9/cyclinT1 assessed as residual activity at 10 uM using KTFCGTPEYLAPEVRREPRILSEEEQEMFRDFDYIADWC as substrate measured after 40 mins in presence of [gamma33P]ATP by scintillation counting method. It is filed as protein-complex assay.
Data set [23] has as its system HCT-116. Put plainly: Antitumor activity against human HCT116 cells xenografted in nude BALB/c mouse assessed as tumor growth inhibition at 80 mg/kg, po administered once daily for 4 weeks measured post-last dose relative to control. It is filed as functional. Particulars: HCT-116, po, 672 h, read-out: TGI. For orientation: In xenograft studies the graft and the host belong to different species.

For data set [24], the target named is SRSF protein kinase 1 (Homo sapiens) (UniProt Q96SB4). Briefly: Inhibition of human SRPK1 (2 to end residues) using RSRSRSRSRSRSRSR as substrate measured after 40 mins in presence of [gamma33P]ATP by scintillation counting method. Further details: scale not given: the % may be the effect or the level left.
SRSF protein kinase 1 (Homo sapiens), sequence (Q96SB4 whole entry): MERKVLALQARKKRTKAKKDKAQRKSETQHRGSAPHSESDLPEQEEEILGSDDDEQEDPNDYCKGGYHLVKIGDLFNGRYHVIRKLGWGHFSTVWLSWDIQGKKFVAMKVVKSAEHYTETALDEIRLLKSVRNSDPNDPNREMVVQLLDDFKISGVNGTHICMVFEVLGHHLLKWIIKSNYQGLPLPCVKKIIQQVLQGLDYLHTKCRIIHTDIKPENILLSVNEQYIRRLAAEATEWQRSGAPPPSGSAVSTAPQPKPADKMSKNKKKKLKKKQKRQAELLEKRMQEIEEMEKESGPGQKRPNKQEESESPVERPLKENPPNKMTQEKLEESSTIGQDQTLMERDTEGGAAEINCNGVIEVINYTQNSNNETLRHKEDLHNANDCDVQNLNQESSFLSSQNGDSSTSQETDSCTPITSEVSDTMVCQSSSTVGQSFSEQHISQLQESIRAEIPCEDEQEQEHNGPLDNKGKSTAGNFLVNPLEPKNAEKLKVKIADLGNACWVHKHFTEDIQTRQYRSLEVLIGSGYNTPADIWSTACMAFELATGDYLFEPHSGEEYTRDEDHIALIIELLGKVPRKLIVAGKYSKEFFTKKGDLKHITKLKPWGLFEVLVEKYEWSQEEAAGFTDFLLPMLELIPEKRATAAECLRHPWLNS

Serine/threonine-protein kinase haspin (Homo sapiens), sequence (Q8TF76 whole entry): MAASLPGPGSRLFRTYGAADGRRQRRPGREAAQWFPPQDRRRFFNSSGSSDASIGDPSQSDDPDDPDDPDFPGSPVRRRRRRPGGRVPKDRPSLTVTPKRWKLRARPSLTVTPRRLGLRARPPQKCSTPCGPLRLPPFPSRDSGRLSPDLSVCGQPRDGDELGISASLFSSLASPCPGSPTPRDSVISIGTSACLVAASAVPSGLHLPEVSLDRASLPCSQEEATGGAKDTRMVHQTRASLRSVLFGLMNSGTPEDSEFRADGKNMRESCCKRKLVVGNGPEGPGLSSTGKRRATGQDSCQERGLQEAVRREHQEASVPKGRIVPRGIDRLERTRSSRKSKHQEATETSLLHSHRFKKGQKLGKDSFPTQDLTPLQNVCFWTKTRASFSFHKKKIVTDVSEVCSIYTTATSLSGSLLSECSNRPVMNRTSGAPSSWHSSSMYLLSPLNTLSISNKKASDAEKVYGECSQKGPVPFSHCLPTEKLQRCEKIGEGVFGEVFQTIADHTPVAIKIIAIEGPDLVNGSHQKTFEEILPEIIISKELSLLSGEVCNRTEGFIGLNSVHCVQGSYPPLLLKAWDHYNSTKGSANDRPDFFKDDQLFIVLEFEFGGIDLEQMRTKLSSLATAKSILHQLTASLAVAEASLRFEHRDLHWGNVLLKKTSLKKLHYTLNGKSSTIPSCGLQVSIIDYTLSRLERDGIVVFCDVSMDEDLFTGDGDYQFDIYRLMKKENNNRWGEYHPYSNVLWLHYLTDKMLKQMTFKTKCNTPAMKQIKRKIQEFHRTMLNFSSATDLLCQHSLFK
Calcium/calmodulin-dependent protein kinase type II subunit beta (Homo sapiens), sequence (Q13554 whole entry, the tested form may be a part): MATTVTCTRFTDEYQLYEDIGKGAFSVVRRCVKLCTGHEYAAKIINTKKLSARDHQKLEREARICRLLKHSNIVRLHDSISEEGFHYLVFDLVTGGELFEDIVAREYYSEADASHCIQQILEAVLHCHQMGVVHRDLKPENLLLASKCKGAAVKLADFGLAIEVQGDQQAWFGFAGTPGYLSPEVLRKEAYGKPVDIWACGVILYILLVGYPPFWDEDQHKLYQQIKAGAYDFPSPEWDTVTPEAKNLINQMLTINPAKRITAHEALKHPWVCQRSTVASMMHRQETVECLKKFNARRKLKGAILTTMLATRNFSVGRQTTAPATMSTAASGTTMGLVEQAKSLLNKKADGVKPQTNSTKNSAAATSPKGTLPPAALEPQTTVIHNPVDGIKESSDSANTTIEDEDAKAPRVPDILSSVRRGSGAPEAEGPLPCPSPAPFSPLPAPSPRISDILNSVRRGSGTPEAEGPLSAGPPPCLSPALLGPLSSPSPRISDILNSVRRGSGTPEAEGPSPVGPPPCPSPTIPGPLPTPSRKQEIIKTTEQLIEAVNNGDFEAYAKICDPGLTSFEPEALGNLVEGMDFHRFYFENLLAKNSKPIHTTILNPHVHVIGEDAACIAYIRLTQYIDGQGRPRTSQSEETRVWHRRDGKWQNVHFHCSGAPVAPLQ
Serine/threonine-protein kinase TAO1 (Homo sapiens), sequence (Q7L7X3 whole entry, the tested form may be a part): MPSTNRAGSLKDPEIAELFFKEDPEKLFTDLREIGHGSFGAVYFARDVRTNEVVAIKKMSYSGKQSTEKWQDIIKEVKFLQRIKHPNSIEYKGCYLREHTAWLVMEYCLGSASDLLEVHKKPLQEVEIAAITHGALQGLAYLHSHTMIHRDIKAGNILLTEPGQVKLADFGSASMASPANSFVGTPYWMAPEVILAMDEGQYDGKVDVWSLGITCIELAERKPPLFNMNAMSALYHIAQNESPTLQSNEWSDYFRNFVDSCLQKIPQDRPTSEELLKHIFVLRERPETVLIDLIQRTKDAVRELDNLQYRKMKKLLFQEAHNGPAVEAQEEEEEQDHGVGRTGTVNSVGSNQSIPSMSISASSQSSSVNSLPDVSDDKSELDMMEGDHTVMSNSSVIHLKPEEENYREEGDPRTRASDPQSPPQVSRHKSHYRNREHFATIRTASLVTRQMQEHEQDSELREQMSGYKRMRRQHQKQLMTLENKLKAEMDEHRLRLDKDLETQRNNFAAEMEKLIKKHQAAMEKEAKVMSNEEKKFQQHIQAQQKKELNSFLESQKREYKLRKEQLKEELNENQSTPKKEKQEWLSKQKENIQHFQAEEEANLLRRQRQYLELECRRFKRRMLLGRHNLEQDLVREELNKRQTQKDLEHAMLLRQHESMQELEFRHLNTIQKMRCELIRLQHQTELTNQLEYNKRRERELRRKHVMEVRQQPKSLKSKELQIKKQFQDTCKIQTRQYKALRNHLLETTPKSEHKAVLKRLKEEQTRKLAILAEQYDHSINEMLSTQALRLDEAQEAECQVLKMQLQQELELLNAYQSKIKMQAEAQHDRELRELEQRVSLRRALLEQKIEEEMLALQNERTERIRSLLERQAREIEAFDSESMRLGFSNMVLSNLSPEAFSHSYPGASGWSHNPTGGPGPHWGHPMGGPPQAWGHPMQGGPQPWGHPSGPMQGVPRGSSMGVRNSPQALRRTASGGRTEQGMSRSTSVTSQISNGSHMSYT

Usually pIC50 stands for −log10 of the IC50, conventionally taken in molar units. On to `Cc1cc(C)c(CNc2nc(Cl)nc3c2ncn3C2CCCC2)c(=O)[nH]1`, for which the Activity in [1] was 110%; in [3], 106%; in [4], 105%; in data set [6], 99.5%; in data set [7], 91%; in [8] it was 104%. Further, the Activity was determined as 81% in data set [9]; 93.5% in [10]; 96.5% in [11]; 93.5% in data set [12]; 108% in data set [13]; 106% in data set [14]. Further, the Activity result in data set [15] is “Non-Toxic”; in data set [16] it was 100%; in [17], 90%; in data set [18], 120%; in data set [19] it was 103%; in [20] it was 89%. The figures for the Activity in data set [21], in data set [22] and in [24] were 106%, 106% and 101%, respectively. Besides, the inhibition in vivo at 40 mg/kg in data set [2] worked out at 39.9%. Also, in [5], the negative-log IC50 (pIC50) was 7.22. For the same compound, the inhibition in vivo at 80 mg/kg in data set [23] stood at 71.6%.
